Results on three molecules are retold here after patent publication US8637528B2, “Use of PDE7 inhibitors for the treatment of movement disorders” (Omeros Corporation, priority 2007, dated 2014).

The target in one test is PDE7A (Homo sapiens (Human), UniProt Q13946). Briefly: PDE7 phosphodiesterase scintillation proximity assay (SPA), PDE7A. In kind it is biochemical. As to conditions: for Fold Selectivity, PDE7A: IC50 against PDE7A divided by IC50 against PDE7A; for selectivity for inhibition of the PDE7A enzyme as compared to the other PDEs: versus PDE1B, 2A, 3A, 4A, 5A, 8A, 9A, 10A, 11A.

Another test deals with PDE3A (Homo sapiens (Human), UniProt Q14432). In words: PDE selectivity SPA assay, PDE3A. In kind it is biochemical. As to conditions: IC50 against PDE3A divided by IC50 against PDE7A.
A further test has as its target PDE5A (Homo sapiens (Human), UniProt O76074). In words: PDE selectivity SPA assay, PDE5A. In kind it is biochemical. As to conditions: IC50 against PDE5A divided by IC50 against PDE7A. On the procedure:
Phosphodiesterase activity was measured by a scintillation proximity assay (SPA, GE Healthcare: Product Code TRKQ7100) with [^3H]-cAMP as the substrate for PDEs 3A, 4A, 8A, or with [^3H]-cGMP as the substrate for PDEs 1B, 2A, 5A, 9A, 10A and 11A. Purified human PDE1B, PDE2A, PDE3A, PDE4A, PDE5A, PDE8A, PDE9A and PDE11A4 were obtained from BPS Bioscience, San Diego, Calif. Purified murine PDE10A was also obtained from BPS Biosciences. […] Therefore, the results obtained using murine PDE10A are believed to be representative of human PDE10.
The purified PDE enzymes were each diluted and stored in a solution containing 25 mM Tris-Cl (pH 8.0), 100 mM NaCl, 0.05% Tween 20, 50% glycerol, and 3 mM DTT. PDE assays were carried out in the following assay cocktail (final concentrations): 50 mM Tris-Cl (pH 8.0), 8.3 mM MgCl2, 1.7 mM EGTA, 0.5 mg/ml BSA, 2.5% DMSO and between 0.2 ng and 6 ng of the PDE protein (depending on the enzyme activity) in a final volume of 0.1 mL.
Reactions were initiated by addition of enzyme, incubated for 20 minutes at 30° C. and then terminated by the addition of 50 μl of SPA beads containing Zn^2+.
The mixture was shaken, and allowed to settle for 3 hours. Then the production of [^3H]-AMP or [^3H]-GMP from the substrate was quantitated by scintillation counting in a Wallac® plate counter. […]

The next test has as its target PDE8A (Homo sapiens (Human), UniProt O60658). Briefly: PDE selectivity SPA assay, PDE8A. In kind it is biochemical. To be noted: IC50 against PDE8A divided by IC50 against PDE7A.
For a further test, the system named is MPTP-treated mice. In words: inked paw stride length in the MPTP mouse model of Parkinson's disease, confirmatory study (Example 6). It is filed as in vivo. Set-up: key to Letter Designation (statistical group of stride length): A: Groups that share a letter are not statistically different; groups that do not share a letter are significantly different from each other.; B: Groups that share a letter are not statistically different; groups that do not share a letter are significantly different from each other.; C: Groups that share a letter are not statistically different; groups that do not share a letter are significantly different from each other. As to conditions: for Letter Designation (statistical group of stride length): No treatment = A, MPTP = B; for Stride length (cm) MEAN ± SEM: MPTP-lesioned mice, 20 minutes after dosing. Here is the method:
Adult male C57BL/6J; retired breeders, aged between 7-9 months (Jackson Laboratory, Bar Harbor, Me., USA), singly housed.
MPTP Mice received 2 subcutaneous injections of methylphenyltetrahydropyridine (“MPTP”) at a dose of 15 mg/kg (free base) with a 10-12 hour interval between injections. Control mice (sham lesion groups) were administered saline instead of MPTP.
Seven days after MPTP/saline administration, OM69 was administered to mice. For each dose, a 100× stock of OM69 was prepared in 100% DMSO and subsequently diluted 100× into phosphate buffered saline (PBS). Then 100 μL of this 1× solution was administered intraperitoneally (IP).
Prior to injection with MPTP or saline, animals were pre-trained to walk across a clean sheet of paper into their home cage without stopping. For assessment of stride length, animals had their forepaws placed in black ink and the length of forepaw steps during normal walking (in a straight line only) was measured. The animals were immediately put back into their home cage upon completion of the task. Stride length was determined by measuring the distance between each step on the same side of the body, measuring from the middle toe of the first step to the heel of the second step. An average of at least four clear steps was calculated.
Data was analyzed using Prism 4.0 software. Groups were analyzed by one way ANOVA and Student-Newman-Keuls post hoc test when appropriate. Significance was considered reached at p<0.05. Treatment groups in the stride length graph that are statistically different are indicated by the letters in Table 6.
Retired breeder male mice (28 animals total) were treated with 2×15 mg/kg MPTP (12 saline; […]) to induce a Parkinsonian state (neurochemical loss of dopamine with corresponding behavioral deficits). On day 1 baseline stride length was measured and then all mice were treated with MPTP or saline. On day 8 stride length was measured again, and then the MPTP-treated animals were divided randomly into two groups of fourteen. As described in Example 5, dosing with the successive treatments indicated in FIG. 12 occurred on consecutive days, and in each case stride length was measured 20 minutes after dosing.
On Day 9, Group 1 animals were treated with OM69 (0.01 mg/kg) and Group 2 were treated with L-dopa (1 mg/kg). On Day 10, Group 1 animals were treated with OM69 (0.03 mg/kg) and Group 2 were treated with L-dopa (5 mg/kg). On Day 11, Group 1 animals were treated with OM69 (0.05 mg/kg) and Group 2 were treated with OM69 (0.1 mg/kg). On Day 12, Group 1 was treated with OM69 (0.07 mg/kg).
Next, for combination studies, the two groups were combined. On Day 14, all the animals were treated with both L-dopa (1 mg/kg) and OM69 (0.01 mg/kg). On Day 15, all the animals were treated with L-dopa (1 mg/kg) in combination with a higher dose of OM69 (0.03 mg/kg).

Sequence of PDE7A (Q13946 whole entry, looked up): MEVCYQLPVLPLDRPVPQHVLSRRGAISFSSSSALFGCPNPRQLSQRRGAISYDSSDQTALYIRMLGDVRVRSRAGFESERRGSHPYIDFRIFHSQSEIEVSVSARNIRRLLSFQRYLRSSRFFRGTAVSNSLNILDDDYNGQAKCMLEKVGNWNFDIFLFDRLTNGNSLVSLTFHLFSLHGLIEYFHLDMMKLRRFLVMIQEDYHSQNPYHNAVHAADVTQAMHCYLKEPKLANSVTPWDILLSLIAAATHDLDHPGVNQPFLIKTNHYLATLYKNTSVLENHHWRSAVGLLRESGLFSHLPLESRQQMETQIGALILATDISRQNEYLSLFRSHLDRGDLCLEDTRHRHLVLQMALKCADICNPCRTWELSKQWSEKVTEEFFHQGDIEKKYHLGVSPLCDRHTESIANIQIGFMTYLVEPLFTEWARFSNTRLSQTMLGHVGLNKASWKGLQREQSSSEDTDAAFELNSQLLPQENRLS
Sequence of PDE3A (Q14432 whole entry): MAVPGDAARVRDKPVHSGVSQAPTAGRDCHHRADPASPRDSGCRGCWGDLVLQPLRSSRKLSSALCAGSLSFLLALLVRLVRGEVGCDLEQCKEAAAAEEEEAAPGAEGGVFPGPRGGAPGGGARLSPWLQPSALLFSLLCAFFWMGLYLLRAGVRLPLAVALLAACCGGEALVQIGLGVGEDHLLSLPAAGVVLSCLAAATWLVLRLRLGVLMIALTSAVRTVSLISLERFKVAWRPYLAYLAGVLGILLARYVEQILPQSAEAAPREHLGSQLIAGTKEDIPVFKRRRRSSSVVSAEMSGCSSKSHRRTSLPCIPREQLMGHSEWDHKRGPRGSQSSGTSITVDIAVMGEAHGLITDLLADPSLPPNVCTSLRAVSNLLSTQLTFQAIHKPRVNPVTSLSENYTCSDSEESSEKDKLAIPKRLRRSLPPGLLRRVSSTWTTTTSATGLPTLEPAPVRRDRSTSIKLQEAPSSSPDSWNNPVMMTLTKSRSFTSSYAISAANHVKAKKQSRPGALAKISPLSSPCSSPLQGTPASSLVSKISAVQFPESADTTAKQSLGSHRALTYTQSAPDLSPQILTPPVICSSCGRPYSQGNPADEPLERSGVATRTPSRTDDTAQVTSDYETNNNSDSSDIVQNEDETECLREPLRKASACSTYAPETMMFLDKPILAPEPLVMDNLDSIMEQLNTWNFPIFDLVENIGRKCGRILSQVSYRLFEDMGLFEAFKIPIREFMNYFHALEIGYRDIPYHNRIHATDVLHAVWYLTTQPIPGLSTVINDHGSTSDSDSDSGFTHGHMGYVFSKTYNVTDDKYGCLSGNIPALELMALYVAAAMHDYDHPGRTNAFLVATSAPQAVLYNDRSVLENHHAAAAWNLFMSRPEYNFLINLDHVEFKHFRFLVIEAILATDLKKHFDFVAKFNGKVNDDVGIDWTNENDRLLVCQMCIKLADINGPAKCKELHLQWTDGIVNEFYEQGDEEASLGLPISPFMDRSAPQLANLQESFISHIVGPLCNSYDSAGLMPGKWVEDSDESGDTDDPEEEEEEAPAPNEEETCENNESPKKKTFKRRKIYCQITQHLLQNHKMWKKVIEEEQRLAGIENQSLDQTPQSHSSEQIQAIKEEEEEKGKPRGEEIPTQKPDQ
Sequence of PDE8A (O60658 whole entry): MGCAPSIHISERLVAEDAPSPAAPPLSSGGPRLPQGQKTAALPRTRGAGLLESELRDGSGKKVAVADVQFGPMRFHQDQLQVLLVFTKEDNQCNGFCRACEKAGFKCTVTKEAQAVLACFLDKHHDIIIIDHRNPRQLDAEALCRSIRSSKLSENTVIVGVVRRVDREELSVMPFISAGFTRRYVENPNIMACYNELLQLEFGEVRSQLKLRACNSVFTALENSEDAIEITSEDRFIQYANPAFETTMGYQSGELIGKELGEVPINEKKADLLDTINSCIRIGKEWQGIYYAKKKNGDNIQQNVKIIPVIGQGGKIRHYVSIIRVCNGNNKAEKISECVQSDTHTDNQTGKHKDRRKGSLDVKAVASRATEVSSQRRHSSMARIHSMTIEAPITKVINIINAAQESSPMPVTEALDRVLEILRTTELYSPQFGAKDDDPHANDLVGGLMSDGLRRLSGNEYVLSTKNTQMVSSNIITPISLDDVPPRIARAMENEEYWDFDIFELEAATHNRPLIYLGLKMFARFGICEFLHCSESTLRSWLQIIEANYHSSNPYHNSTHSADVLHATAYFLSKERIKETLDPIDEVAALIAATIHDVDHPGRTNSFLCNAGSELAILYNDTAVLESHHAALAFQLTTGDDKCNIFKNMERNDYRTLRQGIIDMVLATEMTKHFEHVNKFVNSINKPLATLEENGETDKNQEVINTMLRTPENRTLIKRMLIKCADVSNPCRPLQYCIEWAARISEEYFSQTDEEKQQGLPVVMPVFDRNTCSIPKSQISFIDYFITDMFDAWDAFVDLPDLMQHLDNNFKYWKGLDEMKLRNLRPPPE

The term IC50 denotes the concentration that gives 50% inhibition. The molecule `COc1cc(N)ccc1-c1cc2c(c(=O)[nH]1)C(C1CCCCC1)N=[N+]2C` (stereo not shown) [OM69] had a half-inhibitory concentration (IC50) against PDE7A of 1.3 nM. In addition, at PDE7A, the “potency of PDE7A inhibition, in words” value is given as “high potency”. Besides, the “selectivity between PDE7A and PDE7B, in words” value at PDE7A was “little or no selectivity”. Besides, the “Fold Selectivity, PDE7A” value on PDE7A is recorded as 1 fold. The “selectivity for inhibition of the PDE7A enzyme as compared to the other PDEs” value on PDE7A is “greater than 1000 fold”. The “Fold Selectivity for PDE7A versus PDE3A” value at PDE3A was found to be 8170 fold. Further, the “Fold Selectivity for PDE7A versus PDE5A” value on PDE5A stood at 4630 fold. The “Fold Selectivity for PDE7A versus PDE8A” value on PDE8A is greater than 7700 fold. Moreover, the “Letter Designation (statistical group of stride length)” value in the test on MPTP-treated mice (0.01 mg/kg OM69) is on record as “B”; with MPTP-treated mice (0.03 mg/kg OM69) it was “B”; with MPTP-treated mice (0.05 mg/kg OM69), “C”; with MPTP-treated mice (0.07 mg/kg OM69) it was “C”; in the test on MPTP-treated mice (0.1 mg/kg OM69), “A”. In addition, the “Stride length (cm) MEAN ± SEM” value in the test with MPTP-treated mice (0.01 mg/kg OM69 IP) was 5.77 ± 0.17 cm; in the test on MPTP-treated mice (0.03 mg/kg OM69 IP), 5.93 ± 0.14 cm; in the test on MPTP-treated mice (0.05 mg/kg OM69 IP), 6.38 ± 0.14 cm; in the test with MPTP-treated mice (0.07 mg/kg OM69 IP), 6.65 ± 0.18 cm; with MPTP-treated mice (0.1 mg/kg OM69 IP), 7.23 ± 0.07 cm. The “potency relative to L-dopa in restoring stride length” value with MPTP-treated mice (MPTP-treated mice) is “approximately 50 fold”. Besides, the “effect on stride length, in words” value with MPTP-treated mice (MPTP-treated mice, 0.1 mg/kg OM69) is given as “returned stride length to control (unlesioned) values”; in the test with MPTP-treated mice (MPTP-treated mice, intermediate doses of OM69), “statistically significant (p<0.05) increase in stride length”; in the test with MPTP-treated mice (MPTP-treated mice, low doses of OM69 (0.01 mg/kg or 0.03 mg/kg)), “did not increase stride length”. For the same molecule, in the test on MPTP-treated mice (MPTP-treated mice, FIG. 18), the “dose dependence of the effect on stride length, in words” value is “increases stride length in MPTP-treated mice in a dose-dependent manner”.
Regarding `N[C@@H](Cc1ccc(O)c(O)c1)C(=O)O` [L-dopa, levodopa, reference compound], the entries for the “Letter Designation (statistical group of stride length)” value in the test with MPTP-treated mice (1 mg/kg L-DOPA) and with MPTP-treated mice (5 mg/kg L-DOPA) were “B” and “A”, respectively. The “Stride length (cm) MEAN ± SEM” value was found to be 5.78 ± 0.09 cm in the test with MPTP-treated mice (1 mg/kg L-DOPA) and 7.29 ± 0.07 cm with MPTP-treated mice (5 mg/kg L-DOPA). Besides, the “effect on stride length, in words” value in the test on MPTP-treated mice (MPTP-treated mice, 1 mg/kg L-dopa) was “did not result in a significant increase in stride length”; in the test on MPTP-treated mice (MPTP-treated mice, 5 mg/kg L-dopa), “returned stride length to control (unlesioned) values”.
`O=C1Nc2c(Cl)ccc(OCCO)c2C2(CCCCC2)N1` [OM955]: at PDE7A, the midpoint of inhibition, the IC50, lay at 51.8 nM; the “potency of PDE7A inhibition, in words” value is “moderate potency”; the “selectivity between PDE7A and PDE7B, in words” value is on record as “little or no selectivity”; the “Fold Selectivity, PDE7A” value was 1 fold. In addition, on PDE7A, the “selectivity for inhibition of the PDE7A enzyme as compared to the other PDEs” value was “greater than 100 fold”. Moreover, on PDE3A, the “Fold Selectivity for PDE7A versus PDE3A” value was greater than 192 fold. Further, the “Fold Selectivity for PDE7A versus PDE5A” value on PDE5A stood at 355 fold. On PDE8A, the “Fold Selectivity for PDE7A versus PDE8A” value is greater than 192 fold.
